Laboratory results taken from patent US20240252527A9, “NUCLEOSIDE DRUGS FOR THE TREATMENT OR PREVENTION OF CORONAVIRUS INFECTION AND THEIR USES” (Miracure Biotechnology Limited, priority 2022, published 2024).

Assays:
229E = 229E MRC5 CPE assay (cytopathic experiment); assay type: cell-based, coronavirus 229E (HCoV-229E); conditions: Human coronavirus 229E, MRC5, 72 h; for EC50: read-out: 229E MRC5 CPE assay (μM) EC50; for EC90: read-out: 229E MRC5 CPE assay (μM) EC90
OC43 = OC43 Huh7 CPE assay (cytopathic experiment); assay type: cell-based, coronavirus OC43 (HCoV-OC43); conditions: Betacoronavirus 1, OC43, Huh-7, 168 h; for EC50: read-out: OC43 Huh7 CPE assay (μM) EC50; for EC90: read-out: OC43 Huh7 CPE assay (μM) EC90
In short: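 Cells seeded overnight, then two-fold diluted compound added with virus; viability read by CellTiter-Glo after 3 days (229E, MRC5 cells) or 7 days (OC43, Huh7 cells). EC50/EC90 from % inhibition of virus-induced CPE; CC50 from parallel uninfected cytotoxicity runs, by nonlinear fitting.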

N#C[C@@]1(c2ccc3c(N)ncnn23)O[C@@H]2CO[P@](=O)(OCOC(=O)Oc3ccccc3)O[C@H]2[C@H]1O [Compound 228]
EC50 (229E): > 0.5 µM
EC90 (229E): > 0.5 µM
EC50 (OC43): > 0.5 µM
EC90 (OC43): > 0.5 µM

CCC(CC)COC(=O)[C@H](C)N[P@](=O)(OCCN(CC)CCCC(C)Nc1ccnc2cc(Cl)ccc12)OC[C@H]1O[C@@](C#N)(c2ccc3c(N)ncnn23)[C@H](O)[C@@H]1O (some centres unmarked) [Compound 069]
EC50 (229E): > 0.5 µM
EC90 (229E): > 0.5 µM
EC50 (OC43): > 0.5 µM
EC90 (OC43): > 0.5 µM

[2H]c1cc([C@]2(C#N)O[C@@H]3CO[P@@](=O)(O)O[C@H]3[C@H]2OC(=O)C(CCC)CCC)n2ncnc(N)c12 [Compound 209]
EC50 (229E): > 0.5 µM
EC90 (229E): > 0.5 µM
EC50 (OC43): > 0.5 µM
EC90 (OC43): 0.1 to 0.5 µM

N#C[C@@]1(c2ccc3c(N)ncnn23)O[C@@H]2COP(=O)(O)O[C@H]2[C@H]1OC(=O)c1cccnc1 [Compound 181]
EC50 (229E): > 0.5 µM
EC90 (229E): > 0.5 µM
EC50 (OC43): > 0.5 µM
EC90 (OC43): > 0.5 µM

CCC(CC)COC(=O)[C@H](C)NP(=O)(OCC(=O)OC(C)C)OC[C@H]1O[C@@](C#N)(c2ccc3c(N)ncnn23)[C@H](O)[C@@H]1O (some centres unmarked) [Compound 103]
EC50 (229E): > 0.5 µM
EC90 (229E): > 0.5 µM
EC50 (OC43): > 0.5 µM
EC90 (OC43): > 0.5 µM
